# Experimental data: patent publication US8722649B2, “Alpha-chloro and alpha-bromo phosphonate analogs of lysophosphatidic acid and methods of making and using thereof” (University of Utah Research Foundation, priority 2007, dated 2014)
# “Also recorded” adds a separate entry of the source.
# Key:
# Format in all cases: cell-based
# human LPA5 = biological target: T1, human LPA5 (Homo sapiens, UniProt Q9H1C0); test: Ca2+ mobilization assay, LPA5 transiently transfected RH7777 cells; conditions: for Emax at 10 µM: RH7777; for LPA5 ligand type: agonist/antagonist in words
# T1 construct: expressed in transfected cells; host or cells: rat hepatoma RH7777 cells, transient (Effectene)
# T1 sequence (Q9H1C0 whole entry): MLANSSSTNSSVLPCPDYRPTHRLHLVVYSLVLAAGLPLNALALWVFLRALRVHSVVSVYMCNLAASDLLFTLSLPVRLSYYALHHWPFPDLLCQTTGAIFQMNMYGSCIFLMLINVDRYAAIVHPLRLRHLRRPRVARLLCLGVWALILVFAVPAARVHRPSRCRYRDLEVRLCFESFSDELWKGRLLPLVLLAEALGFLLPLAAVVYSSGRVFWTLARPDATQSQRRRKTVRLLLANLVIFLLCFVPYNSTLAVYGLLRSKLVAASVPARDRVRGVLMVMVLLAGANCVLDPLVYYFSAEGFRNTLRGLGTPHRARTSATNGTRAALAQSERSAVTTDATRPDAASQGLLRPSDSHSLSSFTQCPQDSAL
# Procedure: Receptor activation using Ca^2+ mobilization assay for diastereomers of 1 (also represented as 19b). The rat hepatoma (RH7777) cell lines individually expressing either LPA1, LPA2, LPA3 or LPA5 receptors and Chinese hamster ovary (CHO) cell line were analyzed to examine agonism and antagonism. […] CHO cells stably expressing either vector or LPA4 were kindly gifted from Dr. Shimizu (University of Tokyo, Tokyo, Japan).
# Transient transfection of LPA5. RH7777 cells in a 10-cm dish at a density of 2×10^6/dish were transfected with 2 μg of plasmid DNA with Effectene (Qiagen, Valencia, Calif.) according to the manufacturer's instructions for 24 h, then replated onto PLL-coated 96-well plates at a density of 5×10^4 cells/well and cultured overnight. The following day, the culture medium was then replaced with modified Krebs buffer, and the cells were serum starved for 4 h. Subsequently, cells were loaded with Fura-2 AM for 30 min in modified Krebs buffer containing 2% (v/v) pluronic acid.
# After incubating the cells with Fura-2 AM, the cells were rinsed with Krebs buffer and changes in the intracellular Ca^2+ concentration were monitored by determining the ratio of emitted light intensities at 520 nm in response to excitation at 340 and 380 nm using FLEXstation II (Molecular Devices, Sunnyvale, Calif.). Each well was monitored for 80-120 sec. For testing agonist activity of the compounds, the test compounds were added automatically after 15 sec of baseline measurement. To determine antagonist properties, varying concentrations of the compounds were mixed with a constant concentration of LPA and responses were monitored. Each test was performed in quadruplicate. EC50, IC50, and Ki values were calculated by fitting a sigmoid function to data points with the nonlinear curve-fitting feature of KaleidaGraph (Synergy Software, Essex Junction, Vt.).
# PPARγ = biological target: T2, PPARγ (Homo sapiens, UniProt P37231); test: PPARγ activation assay (PPRE-Acox-Rluc reporter in CV-1 cells); conditions: 10 μM test analogue, 20 h
# T2 construct: expressed in transfected cells; host or cells: CV-1 cells, transient (LipofectAMINE 2000)
# T2 sequence (P37231 1-505): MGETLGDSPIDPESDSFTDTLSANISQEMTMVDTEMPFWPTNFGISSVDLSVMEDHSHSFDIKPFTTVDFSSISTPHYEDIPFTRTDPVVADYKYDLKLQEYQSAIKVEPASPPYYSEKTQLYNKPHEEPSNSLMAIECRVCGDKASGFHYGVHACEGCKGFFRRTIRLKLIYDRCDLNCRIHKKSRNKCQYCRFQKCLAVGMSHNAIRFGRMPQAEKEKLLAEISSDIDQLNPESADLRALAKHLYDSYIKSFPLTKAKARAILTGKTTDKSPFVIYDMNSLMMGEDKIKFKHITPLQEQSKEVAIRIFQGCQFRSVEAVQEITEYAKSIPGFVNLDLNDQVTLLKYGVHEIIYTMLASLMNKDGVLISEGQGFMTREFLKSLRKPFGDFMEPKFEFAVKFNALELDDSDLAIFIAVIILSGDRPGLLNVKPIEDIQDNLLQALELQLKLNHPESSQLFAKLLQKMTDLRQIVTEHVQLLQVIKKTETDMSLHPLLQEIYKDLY
# Procedure: PPARγ activation assay. PPARγ activation was performed using CV-1 cells transfected with an acyl-coenzyme A oxidase-luciferase (PPRE-Acox-Rluc) reporter gene construct as previously reported. Briefly, CV-1 cells were plated in 96-well plates at a density of 1×10^4 cells per well in Dulbecco's modified Eagle's medium supplemented with 10% fetal bovine serum. The next day, the cells were transiently transfected with 125 ng of pGL3-PPRE-Acox-Rluc, 62.5 ng of pcDNA3.1 PPARγ, and 12.5 ng of pSV-β-galactosidase (Promega) using LipofectAMINE 2000 (Invitrogen). Twenty-four hours after transfection, cells were treated with OptiMEM (Invitrogen) containing 10 μM Rosiglitazone or 10 μM of the test analogue dissolved in DMSO for 20 h. Luciferase and β-galactosidase activities were measured with Steady-Glo® Luciferase Assay System (Promega) and the Galacto-Light Plus™ system (Applied Biosystems), respectively. Samples were run in quadruplicate and the mean ±standard errors were calculated. Data are representative of at least two independent transfections.
# MDA-MB-231 cells = test: Matrigel transwell invasion assay; conditions: Homo sapiens, 24 h, read-out: inhibition of MDA-MB-231 invasion through Matrigel
# Procedure: Inhibition of invasion. The invasive behavior of cells was determined in vitro by using 24-well transwell inserts with an 8 μm pore size PET membrane which were coated with Matrigel basement membrane matrix. A suspension of cells (100 μL of 5×10^4) in serum-free medium with or without 10 μM syn-BrP-LPA la or anti-BrP-LPA 1b was added to triplicate inserts, and 600 μL medium supplemented with serum was used as a chemoattractant in the lower chamber. […] Ten fields of cells were counted for each well, and the mean number of cells per field was calculated. Each experiment was performed in triplicate and repeated at least twice.
# [1] = transiently transfected RH7777 cells
structure (smiles),measurement,setting,value
"CCCCCCCCCCCCCCCC(=O)OC[C@@H](O)CC(Br)P(=O)(O)O (mixture of isomers) [Compound 1, [1-Bromo-3(S)-hydroxyl-4-(palmitoyloxy)butyl]-phosphonate]",Emax at 10 µM,human LPA5,54%
same,EC50,"human LPA5; transiently transfected RH7777 cells, NS = non-saturated",1280 nM
"CCCCCCCCC=CCCCCCCCC(=O)OCC(O)CC(O)P(=O)([O-])O.[Na+] (mixture of isomers) [Compound 22a, reference compound]",PPARγ (PPRE luciferase reporter gene assay),PPARγ,NE (NE = no effect was shown at the highest concentration (30 μM) tested.)
"CCCCCCCCCCCCCCCC(=O)OCC(O)CC(O)P(=O)([O-])O.[Na+] (mixture of isomers) [Compound 22b, reference compound]",PPARγ (PPRE luciferase reporter gene assay),PPARγ,NE (NE = no effect was shown at the highest concentration (30 μM) tested.)
CCCCCCCCCCCCCCCC(=O)OC[C@@H](O)C[C@@H](Br)P(=O)(O)O [Compound 1a],inhibition at 10 µM,MDA-MB-231 cells,~52%
same,Emax at 10 µM,human LPA5,64%
same,LPA5 ligand type,human LPA5,Partial Agonist
CCCCCCCCCCCCCCCC(=O)OC[C@@H](O)C[C@H](Br)P(=O)(O)O [Compound 1b],inhibition at 10 µM,MDA-MB-231 cells,~52%
same,LPA5 ligand type,human LPA5,showed inhibition of LPA5; also recorded: Antagonist
same,IC50,human LPA5; [1],977 nM
same,Ki,human LPA5; [1],376 nM
"CCCCCCCC/C=C\CCCCCCCC(=O)OCC(O)CCP(=O)(O)O (centres unmarked) [Compound 20a, reference compound]",PPARγ (PPRE luciferase reporter gene assay),PPARγ,NE (NE = no effect was shown at the highest concentration (30 μM) tested.)
"CCCCCCCCCCCCCCCC(=O)OC[C@@H](O)CCP(=O)([O-])O.[Na+] [Compound 20b, reference compound]",PPARγ (PPRE luciferase reporter gene assay),PPARγ,NE (NE = no effect was shown at the highest concentration (30 μM) tested.)
"CCCCCCCCCCCCCCCC(=O)OCC(O)COP(=O)(O)O (centres unmarked) [LPA (16:0), reference compound]",PPARγ (PPRE luciferase reporter gene assay),PPARγ,NE (NE = no effect was shown at the highest concentration (30 μM) tested.)
